System: uterine gene expression
Assay: Gene expression profiling (HGU133A) in the uterus of ovariectomized monkeys treated with estradiol, tamoxifen or raloxifene
Assay type: in vivo, cynomolgus monkeys (Macaca fascicularis)
Conditions: uterus, OVX monkeys

## C#C[C@]1(O)CC[C@H]2[C@@H]3CCc4cc(O)ccc4[C@H]3CC[C@@]21C [EE]
  Fold change relative to SHAM control: Insulin-like growth factor binding protein 2, 36 kda: 4.4 fold
  Fold change relative to SHAM control: Insulin-like growth factor binding protein 5: 2.8 fold
  Fold change relative to SHAM control: Integrin, beta 5: 1.0 fold
  Fold change relative to SHAM control: Intercrine-alpha, mrna sequence: 0.9 fold
  Fold change relative to SHAM control: LDL receptor adaptor protein: 0.8 fold
  Fold change relative to SHAM control: LIM and senescent cell antigen-like domains 1: 1.4 fold
  Fold change relative to SHAM control: Laminin, beta 1: 1.0 fold
  Fold change relative to SHAM control: Latent transforming growth factor beta binding protein 1: 1.7 fold
  Fold change relative to SHAM control: Matrix metalloproteinase 19: 1.2 fold
  Fold change relative to SHAM control: Mitogen-activated protein kinase kinase kinase kinase 4: 0.9 fold
  Fold change relative to SHAM control: Nidogen (enactin): 2.6 fold
  Fold change relative to SHAM control: Osteoglycin (osteoinductive factor, mimecan): 1.0 fold
  Fold change relative to SHAM control: Peroxiredoxin 1: 1.6 fold
  Fold change relative to SHAM control: Phosphatase and tensin homolog (mutated in multiple advanced cancers 1): 1.2 fold
  Fold change relative to SHAM control: Phospholipid transfer protein: 1.3 fold
  Fold change relative to SHAM control: Pituitary tumour-transforming 1 interacting protein: 0.9 fold
  Fold change relative to SHAM control: Procollagen C-endopeptidase enhancer: 1.5 fold
  Fold change relative to SHAM control: Procollagen-proline, 2-oxoglutarate 4-dioxygenase (proline 4-hydroxylase), alpha polypeptide II: 1.7 fold
  Fold change relative to SHAM control: Progesterone receptor: 3.2 fold
  Fold change relative to SHAM control: Protein tyrosine kinase 9: 1.3 fold
  Fold change relative to SHAM control: SET domain, bifurcated 1: 2.3 fold
  Fold change relative to SHAM control: SPARC-like 1 (mast9, hevin): 1.5 fold
  Fold change relative to SHAM control: Secreted frizzled-related protein 1: 3.6 fold
  Fold change relative to SHAM control: Secreted frizzled-related protein 4: 1.9 fold
  Fold change relative to SHAM control: Secreted protein, acidic, cysteine-rich (osteonectin): 1.4 fold
  Fold change relative to SHAM control: Serine (or cysteine) proteinase inhibitor, clade H (heat shock protein 47), member 1, (collagen binding protein 1): 1.6 fold
  Fold change relative to SHAM control: Solute carrier family 22 (organic cation transporter), member 1-like: 1.6 fold
  Fold change relative to SHAM control: Solute carrier family 25 (mitochondrial carrier; adenine nucleotide translocator), member 5: 1.7 fold
  Fold change relative to SHAM control: Stem cell growth factor; lymphocyte secreted C-type lectin: 1.4 fold
  Fold change relative to SHAM control: Tenascin C (hexabrachion): 0.9 fold
  Fold change relative to SHAM control: Testis Enhanced Gene Transcript (Bax Inhibitor 1): 1.8 fold
  Fold change relative to SHAM control: Thioredoxin interacting protein: 0.5 fold
  Fold change relative to SHAM control: Transforming growth factor, beta-induced, 68 kda: 0.8 fold
  Fold change relative to SHAM control: Ubiquinol-cytochrome c reductase, Rieske iron-sulfur polypeptide 1: 1.1 fold
  Fold change relative to SHAM control: Wingless-type MMTV integration site family, member 2B: 1.5 fold
  Fold change relative to SHAM control: Wingless-type MMTV integration site family, member 16: 0.9 fold
Table 46
  Fold change relative to OVX: Insulin receptor: 0.8 fold
  Fold change relative to SHAM control: Insulin receptor: 1.2 fold
Table 51
  Fold change relative to OVX: Insulin receptor: 0.8 fold
  Fold change relative to SHAM control: Insulin receptor: 1.2 fold
Entry with OVX average 39
  Fold change relative to OVX: Fibronectin 1: 1.6 fold
Entry with OVX average 79
  Fold change relative to OVX: Bone morphogenetic protein 1: 2.6 fold
Entry with OVX average 93
  Fold change relative to OVX: Bone morphogenetic protein 1: 2.9 fold
Entry with OVX average 102
  Fold change relative to OVX: Insulin-like growth factor 1 (somatomedin C): 5.3 fold
Entry with OVX average 124
  Fold change relative to OVX: Fibrillin 1 (Marfan syndrome): 2.2 fold
Entry with OVX average 154
  Fold change relative to OVX: Collagen, type I, alpha 2: 13.2 fold
Entry with OVX average 156
  Fold change relative to OVX: Insulin-like growth factor 1 (somatomedin C): 6.9 fold
Entry with OVX average 171
  Fold change relative to OVX: Solute carrier family 2 (facilitated glucose/fructose transporter), member 5: 4.4 fold
Entry with OVX average 176
  Fold change relative to OVX: Solute carrier family 2 (facilitated glucose/fructose transporter), member 5: 3.5 fold
Entry with OVX average 182
  Fold change relative to OVX: Collagen, type IV, alpha 1: 4.3 fold
Entry with OVX average 224
  Fold change relative to OVX: Cyclin-dependent kinase inhibitor 1C (p57, Kip2): 0.5 fold
Entry with OVX average 310
  Fold change relative to OVX: Insulin-like growth factor 1 (somatomedin C): 6.3 fold
Entry with OVX average 419
  Fold change relative to OVX: Fibronectin 1: 2.4 fold
Entry with OVX average 527
  Fold change relative to OVX: Cyclin-dependent kinase inhibitor 1C (p57, Kip2): 0.4 fold
Entry with OVX average 586
  Fold change relative to OVX: Fibronectin 1: 2.1 fold
Entry with OVX average 648
  Fold change relative to OVX: Fibronectin 1: 1.9 fold
Entry with OVX average 690
  Fold change relative to OVX: Collagen, type IV, alpha 1: 3.7 fold
Entry with OVX average 757
  Fold change relative to OVX: Fibronectin 1: 1.8 fold
Entry with OVX average 762
  Fold change relative to OVX: Cyclin-dependent kinase inhibitor 1C (p57, Kip2): 0.5 fold
Entry with OVX average 811
  Fold change relative to OVX: ATP synthase, H+ transporting, mitochondrial F0 complex, subunit c (subunit 9) isoform 3: 2.0 fold
Entry with OVX average 874
  Fold change relative to OVX: Fibrillin 1 (Marfan syndrome): 3.5 fold
Entry with OVX average 1007
  Fold change relative to OVX: ATP synthase, H+ transporting, mitochondrial F0 complex, subunit c (subunit 9) isoform 3: 2.0 fold
Entry with OVX average 1084
  Fold change relative to OVX: Collagen, type III, alpha 1 (Ehlers-Danlos syndrome type IV, autosomal dominant): 6.8 fold
Entry with OVX average 2757
  Fold change relative to OVX: Collagen, type I, alpha 2: 5.1 fold
Entry with OVX average 3445
  Fold change relative to OVX: Collagen, type III, alpha 1 (Ehlers-Danlos syndrome type IV, autosomal dominant): 4.1 fold
Entry with OVX average 9495
  Fold change relative to OVX: H3 histone, family 3A: 1.5 fold
Entry with OVX average 9692
  Fold change relative to OVX: H3 histone, family 3A: 1.4 fold
Entry with SHAM average 100
  Fold change relative to SHAM control: Fibronectin 1: 0.6 fold
Entry with SHAM average 143
  Fold change relative to SHAM control: Bone morphogenetic protein 1: 1.4 fold
Entry with SHAM average 201
  Fold change relative to SHAM control: Cyclin-dependent kinase inhibitor 1C (p57, Kip2): 0.6 fold
Entry with SHAM average 205
  Fold change relative to SHAM control: Bone morphogenetic protein 1: 1.3 fold
Entry with SHAM average 226
  Fold change relative to SHAM control: Insulin-like growth factor 1 (somatomedin C): 2.4 fold
Entry with SHAM average 236
  Fold change relative to SHAM control: Fibrillin 1 (Marfan syndrome): 1.2 fold
Entry with SHAM average 291
  Fold change relative to SHAM control: Solute carrier family 2 (facilitated glucose/fructose transporter), member 5: 2.1 fold
Entry with SHAM average 317
  Fold change relative to SHAM control: Solute carrier family 2 (facilitated glucose/fructose transporter), member 5: 2.4 fold
Entry with SHAM average 417
  Fold change relative to SHAM control: Insulin-like growth factor 1 (somatomedin C): 2.6 fold
Entry with SHAM average 436
  Fold change relative to SHAM control: Collagen, type IV, alpha 1: 1.8 fold
Entry with SHAM average 459
  Fold change relative to SHAM control: Cyclin-dependent kinase inhibitor 1C (p57, Kip2): 0.5 fold
Entry with SHAM average 493
  Fold change relative to SHAM control: Collagen, type I, alpha 2: 4.1 fold
Entry with SHAM average 581
  Fold change relative to SHAM control: Insulin-like growth factor 1 (somatomedin C): 3.4 fold
Entry with SHAM average 660
  Fold change relative to SHAM control: Cyclin-dependent kinase inhibitor 1C (p57, Kip2): 0.5 fold
Entry with SHAM average 920
  Fold change relative to SHAM control: Fibronectin 1: 1.1 fold
Entry with SHAM average 1045
  Fold change relative to SHAM control: ATP synthase, H+ transporting, mitochondrial F0 complex, subunit c (subunit 9) isoform 3: 1.6 fold
Entry with SHAM average 1089
  Fold change relative to SHAM control: Fibronectin 1: 1.1 fold
Entry with SHAM average 1143
  Fold change relative to SHAM control: Collagen, type IV, alpha 1: 2.2 fold
Entry with SHAM average 1288
  Fold change relative to SHAM control: Fibronectin 1: 0.9 fold
Entry with SHAM average 1301
  Fold change relative to SHAM control: Fibronectin 1: 1.1 fold
Entry with SHAM average 1355
  Fold change relative to SHAM control: ATP synthase, H+ transporting, mitochondrial F0 complex, subunit c (subunit 9) isoform 3: 1.5 fold
Entry with SHAM average 1388
  Fold change relative to SHAM control: Fibrillin 1 (Marfan syndrome): 2.2 fold
Entry with SHAM average 2992
  Fold change relative to SHAM control: Collagen, type III, alpha 1 (Ehlers-Danlos syndrome type IV, autosomal dominant): 2.5 fold
Entry with SHAM average 7354
  Fold change relative to SHAM control: Collagen, type III, alpha 1 (Ehlers-Danlos syndrome type IV, autosomal dominant): 1.9 fold
Entry with SHAM average 7758
  Fold change relative to SHAM control: Collagen, type I, alpha 2: 1.8 fold
Entry with SHAM average 9408
  Fold change relative to SHAM control: H3 histone, family 3A: 1.5 fold
Entry with SHAM average 10239
  Fold change relative to SHAM control: H3 histone, family 3A: 1.4 fold

From US20130040882A1, “USE OF FIBROBLAST GROWTH FACTOR FRAGMENTS” (NOVARTIS AG, priority 2003, published 2013)
